{
  "source": "patent EP2179732A1",
  "about": "“PHARMACEUTICAL COMPOSITION COMBINING AN ENZYME HMG-COA REDUCTASE INHIBITING AGENT AND A GASTROINTESTINAL LIPASE ENZYME INHIBITING AGENT” (Espinosa Abdala, Leopoldo de Jesús, priority 2007, dated 2008)",
  "key": {"[1]": {"test_system": "obese patients with hypercholesterolemia and hypertriglyceridemia", "experiment": "Clinical comparative study of Orlistat, Atorvastatin and combination: lipid profile", "format": "in vivo", "conditions": "for C-HDL Baseline change at 1 year / C-LDL Baseline change at 1 year / CT Baseline change at 1 year / TG Baseline change at 1 year: 1 Year versus baseline; for C-HDL / C-LDL / CT (Total Cholesterol) / TG (Triglycerides): average (SD)", "protocol": "(§1) Methods. Selected patients were obese with a Body Mass Index (IMC) >30 Kg/m^2; with border (Total cholesterol 200-240 mg./dL.) or severe (Total cholesterol ≥ 240 mg./dL.) hypercholesterolemia; with hypertriglyceridemia (≥ 150 mg./dL.); normal pressure patients (systolic pressure <140 mm Hg and diastolic pressure < 90 mm Hg).\n(§2) Patients were >50 years old. Patients were randomized for receiving in Group 1: Orlistat 1 capsule (120 mg.) in main meal.\n(§3) Compliance with treatment was assessed by counting capsules and with follow-up visits every 3 months. Total cholesterol, LDL cholesterol, HDL Cholesterol, Triglycerides in serum and blood pressure during baseline visit were assessed, and at 6 months and 12 months of treatment. Waist index was assessed."}, "[2]": {"conditions": "dose-response study; cited from earlier work"}, "[3]": {"test_system": "obese patients with hypercholesterolemia and hypertriglyceridemia", "conditions": "human, in vivo", "protocol": "as §1, §2, §3"}, "[4]": {"test_system": "obese patients with hypercholesterolemia and hypertriglyceridemia", "experiment": "Clinical comparative study: body weight (body mass index, waist circumference reduction, weight loss)", "format": "in vivo", "protocol": "as §1, §2, §3"}, "[5]": {"test_system": "obese patients with hypercholesterolemia and hypertriglyceridemia", "experiment": "Clinical comparative study: blood pressure", "format": "in vivo", "protocol": "as §1, §2, §3"}, "[6]": {"conditions": "cited from earlier work"}, "plasma proteins": {"test_system": "plasma proteins", "conditions": "in vitro; lipoproteins and albumin main attachment proteins; cited from earlier work"}, "[7]": {"conditions": "dosage of 120 mg once a day; cited from earlier work"}},
  "note": "Marks after values point to notes of the source that are not given here.",
  "data": [
    {"smiles": "CC(C)c1c(C(=O)Nc2ccccc2)c(-c2ccccc2)c(-c2ccc(F)cc2)n1CC[C@@H](O)C[C@@H](O)CC(=O)O", "note": "[Atorvastatin]", "values": [
      {"measurement": "C-HDL Baseline change at 1 year", "setting": "[1]", "result": "12.3** %"},
      {"measurement": "C-LDL Baseline change at 1 year", "setting": "[1]", "result": "-33.0** %"},
      {"measurement": "CT Baseline change at 1 year", "setting": "[1]", "result": "-27.0** %"},
      {"measurement": "TG Baseline change at 1 year", "setting": "[1]", "result": "-25.0* %"},
      {"measurement": "C-HDL", "setting": "[1]; 1 year of treatment", "result": "46 (5) mg./dL."},
      {"measurement": "C-LDL", "setting": "[1]; 1 year of treatment", "result": "104 (23) mg./dL."},
      {"measurement": "CT (Total Cholesterol)", "setting": "[1]; 1 year of treatment", "result": "184 (23) mg./dL."},
      {"measurement": "TG (Triglycerides)", "setting": "[1]; 1 year of treatment", "result": "125 (28) mg./dL."},
      {"measurement": "C-HDL", "setting": "[1]; 6 months of treatment", "result": "44 (5) mg./dL."},
      {"measurement": "C-LDL", "setting": "[1]; 6 months of treatment", "result": "151 (22)* mg./dL."},
      {"measurement": "CT (Total Cholesterol)", "setting": "[1]; 6 months of treatment", "result": "191 (21)* mg./dL."},
      {"measurement": "TG (Triglycerides)", "setting": "[1]; 6 months of treatment", "result": "126 (29) mg./dL."},
      {"measurement": "reduce LDL cholesterol", "setting": "[2]", "result": "41-61%"},
      {"measurement": "reduce apolipoprotein B", "setting": "[2]", "result": "34-50%"},
      {"measurement": "reduce total cholesterol", "setting": "[2]", "result": "30-46%"},
      {"measurement": "reduce triglycerides", "setting": "[2]", "result": "14-33%"},
      {"measurement": "alterations as to serum transaminases or in creatinphosphokinase activity", "setting": "[3]", "result": "did not show alterations"},
      {"measurement": "IMC Baseline changes", "setting": "[4]; 1 Year versus baseline", "result": "-4.1* %"},
      {"measurement": "PP Baseline changes", "setting": "[4]; 1 Year versus baseline", "result": "-4.6* %"},
      {"measurement": "RCC Baseline changes", "setting": "[4]; 1 Year versus baseline", "result": "-3.7* %"},
      {"measurement": "PP (Weight loss)", "setting": "[4]; 1 year", "result": "-7.3 (1.2)"},
      {"measurement": "RCC (Waist circumference reduction)", "setting": "[4]; 1 year", "result": "-3.1 (1.1) cm."},
      {"measurement": "PP (Weight loss)", "setting": "[4]; 6 Months", "result": "-3.7 (1.1)"},
      {"measurement": "RCC (Waist circumference reduction)", "setting": "[4]; 6 Months", "result": "-1.5 (0.7) cm."},
      {"measurement": "IMC Baseline changes", "setting": "[4]; 6 Months versus baseline", "result": -2.3, "unit": "%"},
      {"measurement": "PP Baseline changes", "setting": "[4]; 6 Months versus baseline", "result": -3.7, "unit": "%"},
      {"measurement": "RCC Baseline changes", "setting": "[4]; 6 Months versus baseline", "result": -1.5, "unit": "%"},
      {"measurement": "Diastolic Baseline changes", "setting": "[5]; 1 Year versus baseline", "result": "-7.0* %"},
      {"measurement": "Systolic Baseline changes", "setting": "[5]; 1 Year versus baseline", "result": "-6.0* %"},
      {"measurement": "Diastolic blood pressure [PAD]", "setting": "[5]; 1 year", "result": "83 (3) mm. Hg"},
      {"measurement": "Systolic blood pressure [PAS]", "setting": "[5]; 1 year", "result": "127 (4) mm. Hg"},
      {"measurement": "Diastolic blood pressure [PAD]", "setting": "[5]; 6 Months", "result": "85 (4) mm. Hg"},
      {"measurement": "Systolic blood pressure [PAS]", "setting": "[5]; 6 Months", "result": "130 (4) mm. Hg"},
      {"measurement": "Diastolic Baseline changes", "setting": "[5]; 6 Months versus baseline", "result": -5.0, "unit": "%"},
      {"measurement": "Systolic Baseline changes", "setting": "[5]; 6 Months versus baseline", "result": -3.0, "unit": "%"}
    ]},
    {"smiles": "CCCCCCCCCCC[C@@H](C[C@@H]1OC(=O)[C@H]1CCCCCC)OC(=O)[C@H](CC(C)C)NC=O", "note": "[Orlistat]", "values": [
      {"measurement": "intact Orlistat concentrations", "setting": "[6]; at 8 hours after oral administration, not detectable", "result": "< 5", "unit": "ng/mL"},
      {"measurement": "two main metabolites M1 and M3 as share of total plasma concentration", "setting": "[6]; of the minimal systemically absorbed fraction of the dose", "result": "about 42%"},
      {"measurement": "C-HDL Baseline change at 1 year", "setting": "[1]", "result": 4.8, "unit": "%"},
      {"measurement": "C-LDL Baseline change at 1 year", "setting": "[1]", "result": "-17.0* %"},
      {"measurement": "CT Baseline change at 1 year", "setting": "[1]", "result": "-13.0* %"},
      {"measurement": "TG Baseline change at 1 year", "setting": "[1]", "result": "-30-3** %"},
      {"measurement": "C-HDL", "setting": "[1]; 1 year of treatment", "result": "45 (6) mg./dL."},
      {"measurement": "C-LDL", "setting": "[1]; 1 year of treatment", "result": "152 (23) mg./dL."},
      {"measurement": "CT (Total Cholesterol)", "setting": "[1]; 1 year of treatment", "result": "211 (25) mg./dL."},
      {"measurement": "TG (Triglycerides)", "setting": "[1]; 1 year of treatment", "result": "100 (22) mg./dL."},
      {"measurement": "C-HDL", "setting": "[1]; 6 months of treatment", "result": "44 (5) mg./dL."},
      {"measurement": "C-LDL", "setting": "[1]; 6 months of treatment", "result": "163 (21) mg./dL."},
      {"measurement": "CT (Total Cholesterol)", "setting": "[1]; 6 months of treatment", "result": "232 (22) mg./dL."},
      {"measurement": "TG (Triglycerides)", "setting": "[1]; 6 months of treatment", "result": "120 (24) mg./dL."},
      {"measurement": "adverse events", "setting": "[3]", "result": "Two patients from Group 1 showed adverse gastrointestinal events (fecal urgency)"},
      {"measurement": "IMC Baseline changes", "setting": "[4]; 1 Year versus baseline", "result": "-6.2** %"},
      {"measurement": "PP Baseline changes", "setting": "[4]; 1 Year versus baseline", "result": "-4.6** %"},
      {"measurement": "RCC Baseline changes", "setting": "[4]; 1 Year versus baseline", "result": "-4.6* %"},
      {"measurement": "IMC (Body Mass Index)", "setting": "[4]; 1 year", "result": "27.3 (1.3) Kg./M^2"},
      {"measurement": "PP (Weight loss)", "setting": "[4]; 1 year", "result": "-6.6 (1.5)"},
      {"measurement": "RCC (Waist circumference reduction)", "setting": "[4]; 1 year", "result": "-4.1 (1.1) cm."},
      {"measurement": "IMC (Body Mass Index)", "setting": "[4]; 6 Months", "result": "30.3 (1.4) Kg./M^2"},
      {"measurement": "PP (Weight loss)", "setting": "[4]; 6 Months", "result": "-4.0 (1.2)"},
      {"measurement": "RCC (Waist circumference reduction)", "setting": "[4]; 6 Months", "result": "-2.1 (0.7) cm."},
      {"measurement": "IMC Baseline changes", "setting": "[4]; 6 Months versus baseline", "result": "-3.2* %"},
      {"measurement": "PP Baseline changes", "setting": "[4]; 6 Months versus baseline", "result": "-4.* %"},
      {"measurement": "RCC Baseline changes", "setting": "[4]; 6 Months versus baseline", "result": "-2.1* %"},
      {"measurement": "attached to plasma proteins", "setting": "plasma proteins", "result": "> 99", "unit": "%"},
      {"measurement": "Diastolic Baseline changes", "setting": "[5]; 1 Year versus baseline", "result": "-8.0* %"},
      {"measurement": "Systolic Baseline changes", "setting": "[5]; 1 Year versus baseline", "result": "-16.0* %"},
      {"measurement": "Diastolic blood pressure [PAD]", "setting": "[5]; 1 year", "result": "82 (3) mm. Hg"},
      {"measurement": "Systolic blood pressure [PAS]", "setting": "[5]; 1 year", "result": "128 (3) mm. Hg"},
      {"measurement": "Diastolic blood pressure [PAD]", "setting": "[5]; 6 Months", "result": "82 (3) mm. Hg"},
      {"measurement": "Systolic blood pressure [PAS]", "setting": "[5]; 6 Months", "result": "130 (3) mm. Hg"},
      {"measurement": "Diastolic Baseline changes", "setting": "[5]; 6 Months versus baseline", "result": -8.0, "unit": "%"},
      {"measurement": "Systolic Baseline changes", "setting": "[5]; 6 Months versus baseline", "result": -6.0, "unit": "%"},
      {"measurement": "maximum inhibition of fatty absorption", "setting": "[7]", "result": 30, "unit": "%"}
    ]}
  ]
}
